Values of other authors in paper PMC9050719 (RSC Advances, 2020).

Tests used:
[1] = prodrug of MPA

Bioavailability [1]	Structure (SMILES)	Administered dose giving profound toxicity in mice (mice)
	COc1c(C)c2c(c(O)c1C/C=C(\C)CCC(=O)O)C(=O)OC2 [MPA, Mycophenolic acid]	over 1000 mg per kg per day
~90%	COc1c(C)c2c(c(O)c1C/C=C(\C)CCC(=O)OCCN1CCOCC1)C(=O)OC2 [Mycophenolate mofetil]	
